Data reported in US11192920B2, “Peptides for binding to CD44v6 and use thereof” (KYUNGPOOK NATIONAL UNIVERSITY INDUSTRY-ACADEMIC COOPERATION …, priority 2017, dated 2021).

Tests used:
MDA-MB-231 tumor model = experiment: MDA-MB-231 lung metastasis model; assay type: in vivo, mice; conditions: peptide i.v. 14.2 mg/g 3 times a week for 3 weeks; crizotinib oral 25 mg/kg; vs saline and control peptide
Procedure: (§1) For animal models, 6-week-old to 8-week-old Balb/c female mice were purchased from Orient Bio. Mice were cared for and maintained in conformance with the Guidelines of the Institutional Animal Care and Use Committee (IACUC) of Kyungpook National University. Tumors were prepared by injecting 1×10^6 MDA-MB-231 cells via tail vein to develop lung metastatic model in Balb/c female nude mice and 1×10^6 4T1 cells into the lower left mammary fat pad of Balb/c wild type female mice.
(§2) Tumor-bearing mice were subjected to randomization and grouping when the size of the tumors reached approximately 100 mm^3. Each peptide was intravenously injected via the tail vein of mice ([…] of body weight, 3 times a week for 3 weeks). Crizotinib was given through orally (25 mg/kg of body weight, three times a week for 3 weeks) based on a previous study. Tumor size was measured using a digital caliper, and tumor volume was calculated using the following formula: Volume=(L×W×H)/2 (L: length, longest dimension, W: width, shorter dimension, parallel to the mouse body, and H: height, perpendicular to the length and width). Mice were checked for tumor ulceration. At the end of the treatment, the mice were sacrificed, and the lung and liver were isolated and checked for metastatic tumor masses.
MDA-MB231-luc cells (1×10^6 in 0.1 ml PBS) were injected into the lateral tail vein of female nude mice. The mice were then segregated into groups (n=10 per group) based on initial IVIS image. Starting from day 0, mice were administered CD44v6 peptides by intravenously injected via the tail vein of mice ([…] of body weight, 3 times a week for 3 weeks). After the last IVIS imaging, mice were euthanized and lung tissues were removed from each mouse for metastatic tumor masses immunohistochemical analyses.
(§3) At the end of the treatment, mouse blood was collected and hematological factors were analyzed by DGMIF (Daegu-Gyeongbuk Medical Innovation Foundation) (Daegu, Korea).
CD44v6 Peptides was stable without degradation for at least 24 hours in the presence of serum.

4T1 tumor model = experiment: Anti-tumor therapy in 4T1 tumor model; assay type: in vivo, mice; conditions: for tumor and metastatic growth (bioluminescence imaging): peptide i.v. 14.2 mg/kg thrice a week, crizotinib oral 25 mg/kg thrice a week, vs saline
Procedure: as §1, §2, §3
In vivo anti-tumor activity was further evaluated in 4T1 orthotopic mice models. In relevant with the biodistribution and pharmacokinetic results, in vivo therapy was started by administrating 14.2 mg/kg thrice a week via intravenous injection of CD44v6 peptides and 25 mg/kg crizotinib thrice a week orally.

4T1 orthotopic mice = conditions: anti-CD44v6 antibody staining
Procedure: To analyze ex vivo organ distribution, animals were euthanized at 6 h post-injection with CO2. All major organs (liver, kidney, spleen, heart, and lung) along with tumor tissues were isolated and washed in PBS and ex vivo fluorescence images were taken using the IVIS Lumina III imaging system. Fluorescence intensity within the region of interest (ROI) of each organs was analyzed. Tumor tissues were further fixed with 4% paraformaldehyde overnight and rapidly frozen. Tissue slices (8-μm thick) were prepared using a cryo-microtome and stained with CD44v6 antibody (Santa Cruz), followed by Alexa 594-labeled goat anti-mouse IgG secondary antibody. […]
In vivo fluorescence images were taken before or after injection at various time points (1, 2, 4 and 6 h, respectively) with flamma 675 was injected at the same concentration and method. […]
Ex vivo fluorescence images of excised tumor and organs collected at 6 h post-injection. All major organs (liver, kidney, spleen, heart, and lung) along with tumor tissues were isolated and washed in PBS and ex vivo fluorescence images were taken (n=3) with FPR-675 fluorophore excitation at 675 nm and emission at 698 nm. Fluorescence intensity within the region of interest (ROI) of each organ was analyzed.

[1] = test system: CD44 variant 6 expressing cells MDA-MB231, HELA, 4T1 and PANC-1; conditions: CD44v6 expressing cells
Procedure: (§4) After complete adhesion, the cell culture medium was replaced with fresh medium containing FITC labeled peptides (10 μM) and then the cells were incubated at 37° C. for 1 h and cells were washed with PBS for 3-5 min (thrice) and stained with CD44v6 antibody (Santa cruz), followed by Alexa 594-labeled goat anti-mouse IgG secondary antibody.
(§5) To screen CD44v6-binding peptides, the present inventors first prepared HEK-293 cells transfected with CD44v6-GFP plasmid by transient transfection. […] Twenty phage clones were randomly picked from the third, fourth, and fifth rounds and the peptide-coding DNA inserts of the phage clones were sequenced.

MCF-7 = conditions: CD44v6 non-expressing cells
Procedure: as §4, §5

[2] = test system: CD44v6 silenced MDA-MB-231 cells; conditions: for binding of FITC labelled peptide after silencing of CD44v6 gene (flow cytometry): MDA-MB-231, CD44v6 siRNA; for binding of FITC labelled peptide after siRNA treatment (immunofluorescence staining): MDA-MB-231, siRNA 100 nmol
Procedure: Control siRNA (50-[…] (dTdT) 30) and glyceraldehyde-3 phosphate dehydrogenase (GAPDH) siRNA (50-[…] (dTdT)-30) were also purchased from Bioneer, Daejeon, Korea. The transfection was performed using Lipofectamine 2000 (Invitrogen, Karlsruhe, Germany). Two rounds of transfection with an interval of 24 h between were performed. 48 h after the first transfection the cells were serum-starved for 24 h and then subjected to further treatment.
MDA-MB-231 cells were serum-starved for 24 hours and then subjected to further treatment. SiRNAs v6-1 and v6-2 transfected and kept it for different time interval to achieve the CD44v6 expression inhibition.

MDA-MB-231 xenograft = conditions: anti-CD44v6 antibody staining
Procedure: Tumor tissues were further fixed with 4% paraformaldehyde overnight and rapidly frozen. Tissue slices (8-μm thick) were prepared using a cryo-microtome and stained with CD44v6 antibody (Santa Cruz), followed by Alexa 594-labeled goat anti-mouse IgG secondary antibody.

MDA-MB-231 cells = conditions: MDA-MB-231, dose-dependent
CD44v6 = conditions: biotinylated peptide + avidin bead + cell lysate
Procedure: (§6) Biotinylated CD44v6 peptides was incubated with monomer avidin magnetic beads (Bioclone Inc.) for 30-60 min at room temperature with gentle rotation to be used for peptide pulldown, prior to incubation with cell lysates. Cells were lysed using cell lysis reagent (Thermo scientific) with protease inhibitors. After the first incubation of biotinylated peptide+avidin bead (complex 1) were washed with PBS and complex is incubated with cell lysate for 30-60 min at room temperature with gentle rotation. Bound biotinylated peptide+avidin bead+cell lysate (complex 2) were eluted by 1× blocking buffer/elution buffer for 5-10 min incubation after elution and the elute was subjected to western blot analysis using CD44v6 antibody (Millipore) to pull down the specific protein.
(§7) Biotinylated peptide+avidin bead+cell lysate (complex 2) were eluted for western blot analysis using CD44v6 antibody to pull down the specific protein.

wild-type CD44 = wild-type CD44 (Homo sapiens, UniProt P16070); conditions: biotinylated peptide + avidin bead + cell lysate
Sequence of wild-type CD44 (P16070 21-361 isoform P16070-12 limits assumed): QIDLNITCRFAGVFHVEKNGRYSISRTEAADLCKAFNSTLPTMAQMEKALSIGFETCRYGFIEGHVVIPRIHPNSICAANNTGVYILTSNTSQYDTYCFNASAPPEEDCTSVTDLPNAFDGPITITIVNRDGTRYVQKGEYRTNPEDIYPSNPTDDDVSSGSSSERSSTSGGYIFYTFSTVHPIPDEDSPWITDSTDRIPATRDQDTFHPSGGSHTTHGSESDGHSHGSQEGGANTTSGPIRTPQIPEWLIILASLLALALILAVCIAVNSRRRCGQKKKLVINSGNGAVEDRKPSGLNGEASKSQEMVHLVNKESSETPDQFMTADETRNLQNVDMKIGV
Procedure: as §6, §7

[3] = test system: c-Met and Erk phosphorylation in MDA-MB-231 cells; conditions: MDA-MB-231, HGF 25-50 ng/mL; peptides 5 ug/ml each, combination 10 μg/ml
Procedure: Serum-starved cells (24 hours) were induced with the growth factor HGF (25-50 ng/mL), at 37° C. for 10 min. Where indicated, the cells were treated with a CD44v6 specific peptide or a control peptide (50 μg/ml) at 37° C. for 10 min before induction and cells were washed with ice-cold phosphate-buffered saline (PBS). To detect activated Erk and activated c-Met, cells were lysed in boiling sodium dodecyl sulfate (SDS) sample buffer containing 100 mM dithiothreitol (DTT) and subjected to Western blot analysis using antibodies against phosphorylated Erk and phosphorylated c-Met. The loading control was performed on the same blot, stripped (62.5 mM Tris, pH 6.8, 2% SDS, 0.8% DTT), and probed with the Erk and c-Met antibodies. Blots were stained using the enhanced chemiluminescence system (Thermo Fisher Scientific). Bands in Western blot analysis were quantified with the program ImageJ (National Institutes of Health).
In the present invention, MDA-MB-231 and 4T1 cells were serum-starved (24 hours) and were induced with the growth factor HGF (25-50 ng/mL) at 37° C. for 10 min. The cells were treated with a CD44v6 specific peptide or a control peptide (100 ng/ml) at 37° C. for 10 min before induction. To detect activated Erk and activated c-Met, cells were lysed and subjected to Western blot analysis using antibodies against phosphorylated Erk and phosphorylated c-Met. […]

c-Met = conditions: biotinylated peptide + avidin bead + cell lysate

Sequence of CD44v6 (P16070 386-428 limits assumed): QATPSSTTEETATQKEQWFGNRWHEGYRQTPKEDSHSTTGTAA

| Compound | metastasis (bioluminescence imaging) (MDA-MB-231 tumor model) | tumor growth (tumor volume) (4T1 tumor model; 4T1 bearing mice) | tumor and metastatic growth (bioluminescence imaging) (4T1 tumor model) | immunohistochemical examination of tumor tissues (4T1 orthotopic mice) | binding of FITC labelled peptide after pre-treatment with anti-CD44v6 blocking antibody (MCF-7 cells) | binding to MDA-MB-231, 4T1 and PANC-1 [1] | binding to MCF-7 (MCF-7) | binding of FITC labelled peptide after silencing of CD44v6 gene (flow cytometry) [2] | binding of FITC labelled peptide after siRNA treatment (immunofluorescence staining) [2] | immunohistochemical examination of tumor tissues (MDA-MB-231 xenograft) | binding of FITC labelled peptide after pre-treatment with anti-CD44v6 blocking antibody (MDA-MB-231 cells) | pull down of CD44v6 (CD44v6) | pull down of wild-type CD44 (wild-type CD44) | phosphorylation of c-Met and its downstream target Erk [3] | pull down of c-Met (c-Met) |
| --- | --- | --- | --- | --- | --- | --- | --- | --- | --- | --- | --- | --- | --- | --- | --- |
| C[C@@H](Oc1cc(-c2cnn(C3CCNCC3)c2)cnc1N)c1c(Cl)ccc(F)c1Cl [crizotinib, reference compound] | inhibited metastatic growth | Slight reduction of tumor volume | slightly inhibited tumor and metastatic growth |  |  |  |  |  |  |  |  |  |  |  |  |
| CNEWQLKSC [v6Pep-2] | inhibited metastatic growth |  | slightly inhibited tumor and metastatic growth | co-localized with CD44v6 | minimal effect | bind specifically | did not show specific binding | binding got inhibited | negligible binding | co-localized with CD44v6 | significantly reduced the binding | pulled down | not pulled down | drastically reduced the phosphorylation |  |
| CNLNTIDTC [v6Pep-1] | inhibited metastatic growth |  | slightly inhibited tumor and metastatic growth | co-localized with CD44v6 | minimal effect | bind specifically | did not show specific binding | binding got inhibited | negligible binding | co-localized with CD44v6 | significantly reduced the binding | pulled down | not pulled down | drastically reduced the phosphorylation | pulled down |
